From patent US7163960B2, “Treatment and prevention of inflammatory disorders” (Monsanto Technology L.L.C., priority 2002, dated 2007)
Marks after values point to notes of the source that are not given here.

Experiments:
Assay type in all cases: in vivo, human
[1] = Fatty acid analysis of blood cell phospholipids and plasma lipid fractions after ingestion of test fatty acids; details: both, human, in vivo
Text: 45 males and post-menopausal female—19–65 years of age, normolipidemic, and with a body mass index (BMI) in the range 20 to 30, were recruited. Exclusion criteria included bleeding disorders, hypertension, inflammatory disorders, active gastrointestinal diseases, chronic use of low dose aspirin, consumption of restaurant or takeaway evening meals more than twice per week, use of dietary supplements rich in n-3 or n-6 fatty acids, habitual consumption of more than 1 fish meal per month, and plasma phospholipid EPA+DHA levels>7.9% of total fatty acids (level achieved in the study group was 4.9±1.0% of total fatty acids).
(§1) Following a 3-week run-in period, subjects ingested either ALA, SDA, EPA supplied as ethyl esters in capsules. Intakes were 0.75 g/day for 3 weeks followed by 1.5 g/day for the subsequent 3 weeks.
At each visit, 36 mL of blood was taken by venepuncture after an overnight fast. Blood was aliquoted into various tubes for the following procedures.
Blood (20 mL) was added to tubes containing 4 mL 4.5% EDTA in water and 4 mL—6% dextran in normal saline, pH 7.0. Erythrocytes were allowed to sediment under gravity at 37° C. for 30 min. The leucocyte-rich plasma was layered onto LYMPHOPREP, density 1.077 (Nycomed Pharma, Oslo) and centrifuged at 110 g for 10 min to separate leucocytes from the platelets, which were removed. The gradient was further centrifuged at 200 g for 20 min to separate the neutrophils from mononuclear cells, which were removed.
Samples were processed for fatty acid analysis as described in Mantzioris et al., Am. J. Clin. Nutr., 72:42–8 (2000). Plasma, washed platelet and mononuclear cell pellets were stored at −80° C. Erythrocyte pellets were treated fresh with chloroform:isopropanol (2:1) and the lipid extracts stored at 4° C. Plasma, platelet and mononuclear cell pellets were extracted with chloroform:methanol. The cellular and plasma lipid extracts were fractionated by thin-layer chromatography. For the cellular extracts, the phospholipid fraction was retained and for the plasma extracts, the phospholipid, cholesterol ester, and triglyceride fractions were retained. These were transesterified by methanolysis (1% H2SO4 in methanol at 70° C. for 3 h). Fatty acid methyl esters were separated and quantified with a HEWLETT-PACKARD 6890 gas chromatograph equipped with a 50 m capillary column coated with BPX-70 (0.25 μm film thickness; SGE Pty Ltd, Victoria, Australia) (see Mantzioris et al., supra). Fatty acid standards were obtained from NuChek Prep Inc. (Elysian, Minn.) and included stearidonic acid obtained from Sigma Aldrich Pty Ltd. (Castle Hill, NSW, Australia). All organic solvents contained butylated hydroxy anisole (0.005%) as an antioxidant.

IL-1β = IL-1β synthesis in LPS-treated whole blood; details: for IL-1β synthesis in LPS-treated whole blood: mean ± SD
Protocol: as §1
(§2) Blood (4 mL) was added to heparinised tubes, bacterial lipopolysaccharide (LPS) was added (200 ng/mL), and the mixture was incubated at 37° C., 5% CO2, for 24 h. Plasma was collected and assayed for prostaglandin E2 (PGE2) by radioimmunoassay (RIA), interleukin-1β (IL-1β) and tumor necrosis factor-α (TNF-α) by ELISA, as described in Mantzioris et al., supra.

prostaglandin E2 (PGE2) = assay: PGE2 synthesis in LPS-stimulated whole blood; details: for PGE2 synthesis in LPS-stimulated whole blood: mean ± SD
Protocol: as §1, §2

TNF-α = TNF-α synthesis in LPS-treated whole blood; details: for TNF-α synthesis in LPS-treated whole blood: mean ± SD
Protocol: as §1, §2

[2] = Week 3 (after 0.75 g/day for 3 weeks)
[3] = Week 6 (after 1.5 g/day for 3 weeks)
[4] = Week −3 (start of run-in, before dosing)

Compound: CC/C=C\C/C=C\C/C=C\CCCCCCCC(=O)O [ALA, α-linolenic acid]
- DHA (% of total fatty acids), Erythrocyte phospholipid ([1]; 0 week): 4.61 ± 0.71^b % of total fatty acids
- DHA (% of total fatty acids), Plasma phospholipid ([1]; 0 weeks): 3.64 ± 0.65 % of total fatty acids
- DPA (% of total fatty acids), Erythrocyte phospholipid ([1]; 0 weeks): 3:08 ± 0:35 % of total fatty acids
- DPA (% of total fatty acids), Plasma phospholipid ([1]; 0 weeks): 1.39 ± 0.26^ab % of total fatty acids
- EPA (% of total fatty acids), Monocyte ([1]; 0 weeks): 0.57 (0.11)a % of total fatty acids
- EPA (% of total fatty acids), Plasma CE ([1]; 0 weeks): 1.16 (0.33)ab % of total fatty acids
- EPA (% of total fatty acids), Plasma Phospholipid ([1]; 0 weeks): 1.16 (0.31)ab % of total fatty acids
- EPA (% of total fatty acids), Plasma TG ([1]; 0 weeks): 0.27 (0.12) % of total fatty acids
- EPA (% of total fatty acids), Platelet ([1]; 0 weeks): 0.48 (0.11)a % of total fatty acids
- EPA (% of total fatty acids), Red Blood ([1]; 0 weeks): 0.88 (0.17)a % of total fatty acids
- EPA (% of total fatty acids), Monocyte ([1]; 3 weeks): 0.63 (0.14)a3 % of total fatty acids
- EPA (% of total fatty acids), Plasma CE ([1]; 3 weeks): 1.35 (0.58)bc2 % of total fatty acids
- EPA (% of total fatty acids), Plasma Phospholipid ([1]; 3 weeks): 1.33 (0.54)bc3 % of total fatty acids
- EPA (% of total fatty acids), Plasma TG ([1]; 3 weeks): 0.32 (0.13)2 % of total fatty acids
- EPA (% of total fatty acids), Platelet ([1]; 3 weeks): 0.55 (0.14)a2 % of total fatty acids
- EPA (% of total fatty acids), Red Blood ([1]; 3 weeks): 0.92 (0.23)a3 % of total fatty acids
- EPA (% of total fatty acids), Monocyte ([1]; 6 weeks): 0.81 (0.28)b2 % of total fatty acids
- EPA (% of total fatty acids), Plasma CE ([1]; 6 weeks): 1.41 (0.36)c3 % of total fatty acids
- EPA (% of total fatty acids), Plasma Phospholipid ([1]; 6 weeks): 1.43 (0.40)c3 % of total fatty acids
- EPA (% of total fatty acids), Plasma TG ([1]; 6 weeks): 0.34 (0.16)2 % of total fatty acids
- EPA (% of total fatty acids), Platelet ([1]; 6 weeks): 0.64 (0.21)b2 % of total fatty acids
- EPA (% of total fatty acids), Red Blood ([1]; 6 weeks): 1.01 (0.18)b3 % of total fatty acids
- DHA (% of total fatty acids), Erythrocyte phospholipid ([1]; -3 week): 4.87 ± 0.74^a % of total fatty acids
- DHA (% of total fatty acids), Plasma phospholipid ([1]; -3 weeks): 3.70 ± 0.63 % of total fatty acids
- DPA (% of total fatty acids), Erythrocyte phospholipid ([1]; -3 weeks): 3.10 ± 0.40 % of total fatty acids
- DPA (% of total fatty acids), Plasma phospholipid ([1]; -3 weeks): 1.29 ± 0.18^a % of total fatty acids
- EPA (% of total fatty acids), Monocyte ([1]; -3 weeks): 0.67 (0.20)^a % of total fatty acids
- EPA (% of total fatty acids), Plasma CE ([1]; -3 weeks): 1.11 (0.26)^a % of total fatty acids
- EPA (% of total fatty acids), Plasma Phospholipid ([1]; -3 weeks): 1.07 (0.23)^a % of total fatty acids
- EPA (% of total fatty acids), Plasma TG ([1]; -3 weeks): 0.26 (0.08) % of total fatty acids
- EPA (% of total fatty acids), Platelet ([1]; -3 weeks): 0.44 (0.12)^a % of total fatty acids
- EPA (% of total fatty acids), Red Blood ([1]; -3 weeks): 0.88 (0:16)^a % of total fatty acids
- Effect on LPS-stimulated IL-1β synthesis (IL-1β; 0.75 g/day or 1.5 g/day (either dose)): no effect
- IL-1β synthesis in LPS-treated whole blood (IL-1β; Week 0 (baseline)): 96.9 ± 30.9 ng/mL
- IL-1β synthesis in LPS-treated whole blood (IL-1β; [2]): 87.3 ± 29.9 ng/mL
- IL-1β synthesis in LPS-treated whole blood (IL-1β; [3]): 83.3 ± 24.0 ng/mL
- IL-1β synthesis in LPS-treated whole blood (IL-1β; [4]): 97.9 ± 27.4 ng/mL
- Effect on LPS-stimulated PGE2 synthesis (prostaglandin E2 (PGE2); 1.5 g/day): no change
- Effect on LPS-stimulated PGE2 synthesis (prostaglandin E2 (PGE2); Visit 3, following ingestion of 0.75 g): statistically significant increases
- PGE2 synthesis in LPS-stimulated whole blood (prostaglandin E2 (PGE2); Week 0 (baseline)): 4.63 ± 2.21^a ng/mL
- PGE2 synthesis in LPS-stimulated whole blood (prostaglandin E2 (PGE2); [2]): 6.25 ± 3.00^b ng/mL
- PGE2 synthesis in LPS-stimulated whole blood (prostaglandin E2 (PGE2); [3]): 4.30 ± 1.37^a ng/mL
- PGE2 synthesis in LPS-stimulated whole blood (prostaglandin E2 (PGE2); [4]): 4.00 ± 1.65^a ng/mL
- Effect on LPS-stimulated TNF synthesis (TNF-α; 1.5 g/day): statistically significant decreases
- TNF-α synthesis in LPS-treated whole blood (TNF-α; Week 0 (baseline)): 36.8 ± 17.4^a ng/mL
- TNF-α synthesis in LPS-treated whole blood (TNF-α; [2]): 32.7 ± 11.9^a ng/mL
- TNF-α synthesis in LPS-treated whole blood (TNF-α; [3]): 25.3 ± 7.2^b ng/mL
- TNF-α synthesis in LPS-treated whole blood (TNF-α; [4]): 30.9 ± 13.1^a ng/mL
